Data: patent US4997834A, “Trans-4-amino(alkyl)-1-pyridylcarbamoylcyclohexane compounds and pharmaceutical use thereof” (priority 1988, dated 1991)

What was measured:
[1] = test system: spontaneously hypertensive rats; assay: Antihypertensive effect: systolic blood pressure by tail cuff method in spontaneously hypertensive rats; format: in vivo, male spontaneously hypertensive rats; settings: 30 mg/kg orally, measured three hours after administration
Procedure: PHARMACOLOGICAL EXPERIMENT 1: ANTIHYPERTENSIVE EFFECT
Each of 30 mg/kg of test compounds dissolving in 0.5% of hydroxypropyl-methylcellurose was orally administered to groups of 3 to 5 male spontaneously hypertensive rats weighing 350-450 g. Three hours after the administration, the systolic blood pressure was measured by tail cuff method and antihypertensive effects are examined.

left coronary artery = assay: Effect on coronary blood flow (perfused left coronary artery, anesthetized dogs); format: in vivo, adult mongrel dogs; settings: pentobarbital-anesthetized; for Effect of coronary blood flow, ED50 (in artery): dose increasing coronary blood flow by half of the effect of 3 μg intracoronary nifedipine, test dose 10-300 μg into coronary artery; for Effect of coronary blood flow, T1/2 (duration of effects): injection into coronary artery, 10-300 μg
Procedure: PHARMACOLOGICAL EXPERIMENT 2: EFFECT ON CORONARY BLOOD FLOW
Groups of 2 to 3 adult mongrel dogs were anesthetized with the intraveneous administration of 30 mg/kg of body weight of sodium pentobarbital.
According to the method of Yago et. al. described in Folia Pharmacologica Japonica, vol. 57, p.380 (1961), the left coronary artery was perfused and its blood flow volume was measured. Test compound was injected into the coronary artery at a […] of 10-300 μg. The effects of test compound on coronary blood flow were expressed as ED50 (μg), a dose required to increase the coronary blood flow by a half of the effects of the coronary-artery injection of 3 μg of nifedipine [Dimethyl 2,6-dimethyl-4-(2-nitrophenyl)-1,4-dihydropyridine-3,5-dicarboxylate]. Each of half-life (T 1/2, minute) was measured as the duration of effects.

right vertebral artery = assay: Effect on vertebral blood flow (perfused right vertebral artery, anesthetized dogs); format: in vivo, adult mongrel dogs; settings: doses 10-100 μg (A); for Effect of vertebral blood flow, ED100: dose giving 100% of the maximum blood flow increase by 100 μg papaverine hydrochloride, 30-100 μg (B, C) into vertebral artery; for Effect of vertebral blood flow, T1/2 (duration of the effects): injection into vertebral artery, 30-100 μg (B, C)
Procedure: PHARMACOLOGICAL EXPERIMENT 3: EFFECT ON VERTEBRAL BLOOD FLOW
Groups of two adult mongrel dogs were anesthetized with the intraveneous administration of 25 mg/kg of body weight of sodium pentobarbital.
The right vertebral artery was perfused and the blood flow volume was measured. Test compound was injected in the vertebral artery. The percentage of maximum increase of blood flow by the injection of 100 μg of papaverine hydrochloride (1-[(3,4-dimethoxyphenyl)methyl]-6,7-dimethoxyisoquinoline hydrochloride) in vertebral artery was taken as 100% . The effects of test compound on vertebral artery were expressed as ED100 (μg), a dose required to obtain 100% of the increase of blood flow. Each of half-life (T 1/2, minute) was measured as the duration of the effects.

ddY strain mice = assay: Acute toxicity, intraperitoneal, mice; format: in vivo
From the text: EXPERIMENT OF ACUTE TOXICITY
Each of test compounds of A, B and C was intraperitoneally administered to ddY strain mice.

[2] = intraperitoneal dose of 100 mg/kg, five days after administration

SMILES: C[C@H]1C[C@H](CN)CC[C@H]1C(=O)Nc1ccncc1 (relative stereo) [Test Compound B, Trans-4-aminomethyl-cis-2-methyl-1-(4-pyridylcarbamoyl)cyclohexane]
- Maximum lowering value of systolic blood pressure [1]: -44 mmHg
- Effect of coronary blood flow, ED50 (in artery) (left coronary artery): 35 µg
- Effect of coronary blood flow, T1/2 (duration of effects) (left coronary artery): 4.0 min
- Effect of vertebral blood flow, ED100 (right vertebral artery): 74 µg
- Effect of vertebral blood flow, T1/2 (duration of the effects) (right vertebral artery): 4.4 min
- Survival of mice (ddY strain mice; [2]): All mice survived

SMILES: CC(N)[C@H]1CC[C@H](C(=O)Nc2ccncc2)CC1 (relative stereo) [Test Compound C, Trans-4-(1-aminoethyl)-1-(4-pyridylcarbamoyl)cyclohexane]
- Maximum lowering value of systolic blood pressure [1]: -52 mmHg
- Effect of coronary blood flow, ED50 (in artery) (left coronary artery): 34 µg
- Effect of coronary blood flow, T1/2 (duration of effects) (left coronary artery): 3.0 min
- Effect of vertebral blood flow, ED100 (right vertebral artery): 58 µg
- Effect of vertebral blood flow, T1/2 (duration of the effects) (right vertebral artery): 3.0 min
- Survival of mice (ddY strain mice; mouse, in vivo, ip, 100 mg/kg): All mice survived

SMILES: NC[C@H]1CC[C@H](C(=O)Nc2ccncc2)CC1 [Test Compound A, Trans-4-aminomethyl-1-(4-pyridylcarbamoyl)cyclohexane]
- Effect of coronary blood flow, ED50 (in artery) (left coronary artery): 56 µg
- Effect of coronary blood flow, T1/2 (duration of effects) (left coronary artery): 1.7 min
- Effect of vertebral blood flow, ED100 (right vertebral artery): 35 µg
- Effect of vertebral blood flow, T1/2 (duration of the effects) (right vertebral artery): 2.1 min
- Survival of mice (ddY strain mice; [2]): All mice survived
